Laboratory results from PMC9963121, “Development of Combretastatin A-4 Analogues as Potential Anticancer Agents with Improved Aqueous Solubility” (Molecules, 2023).

Test system: AGS gastric cancer cell
Test: MTT cell growth inhibition assay, AGS gastric cancer cells
Type: cell-based
Settings: Homo sapiens, mean ± SD of three experiments
Excerpt: (§1) Initially, we designed and synthesised seven compounds—9a and 12a1–12a6—and evaluated the anticancer activity and aqueous solubility. We evaluated the cytotoxic effects of these stilbene nitrile analogues against a panel of four human cancer cell lines (HCT-116, BEL-7402, MCF-7 and AGS) and two human non-cancerous normal cell lines (L-02 and MCF-10A), using CA-4 as a control. The compounds were screened for aqueous solubility in 0.01 M PBS using a high throughput UV method. […] It is possible that the size of the nitrogen heterocycle had little effect on the activity of these compounds. […] The aqueous solubility of all the compounds 12a1–12a6 was higher than that of 9a, particularly that of 12a1 and 12a2 containing piperazine rings. […] Of the six compounds with improved aqueous solubility, 12a1 had the best activity.
(§2) All human cell lines were used in this study. AGS gastric cancer cell, BEL-7402 liver cancer cell, HCT-116 colorectal cancer cell, L-02 normal liver cell, MCF-7 breast cancer cell, and MCF-10A normal breast cell were initially purchased from American Type Culture Collection (ATCC, Manassas, VA, USA). RPMI-1640 media, DMEM and FBS, were provided by Gibco Company. The cells were maintained in DMEM or RPMI-1640, supplemented with 10% FBS, 100 IU/mL penicillin and […] streptomycin, and at 37 °C in a humidified atmosphere containing 5% CO2.
(§3) The experiment was carried out according to the method of reference.

IC50 [µM]	Compound
40 ± 3.81	COc1ccc(/C(C#N)=C/c2ccc(NC(=O)CN3CCN(C)CC3)cc2C)cc1OC [12d1]
15.3 ± 3.86	CCN1CCN(CC(=O)Nc2ccc(/C=C(\C#N)c3ccc(OC)c(OC)c3)c(C)c2)CC1 [12d2]
15.3 ± 3.02	COc1cc(/C(C#N)=C/c2ccc(NC(=O)CN3CCN(C(C)C)CC3)cc2)cc(OC)c1OC.Cl [compound 15]
14.8 ± 3.37	COc1cc(/C(C#N)=C/c2ccc(NC(=O)CN3CCN(CCOCCO)CC3)cc2)cc(OC)c1OC [compound 16]
22.6 ± 1.45	COc1cc(/C(C#N)=C/c2ccc(NC(=O)CN3CCN[C@@H](C)C3)cc2)cc(OC)c1OC [compound 17]

Test system: MCF-7 breast cancer cell
Test: MTT cell growth inhibition assay, MCF-7 breast cancer cells
Type: cell-based
Settings: Homo sapiens, MCF7, mean ± SD of three experiments
Excerpt: as §1, §2, §3

IC50 [µM]	Compound
33.4 ± 0.84	COc1ccc(/C(C#N)=C/c2ccc(NC(=O)CN3CCN(C)CC3)cc2C)cc1OC [12d1]
28.7 ± 3.14	CCN1CCN(CC(=O)Nc2ccc(/C=C(\C#N)c3ccc(OC)c(OC)c3)c(C)c2)CC1 [12d2]
12.2 ± 0.93	COc1cc(/C(C#N)=C/c2ccc(NC(=O)CN3CCN(C(C)C)CC3)cc2)cc(OC)c1OC.Cl [compound 15]
31.2 ± 4.73	COc1cc(/C(C#N)=C/c2ccc(NC(=O)CN3CCN(CCOCCO)CC3)cc2)cc(OC)c1OC [compound 16]
15.6 ± 1.87	COc1cc(/C(C#N)=C/c2ccc(NC(=O)CN3CCN[C@@H](C)C3)cc2)cc(OC)c1OC [compound 17]

Test system: HCT-116 colorectal cancer cell
Test: MTT cell growth inhibition assay, HCT-116 colorectal cancer cells
Type: cell-based, human
Settings: Homo sapiens, HCT-116; MTT; mean ± SD of three experiments
Excerpt: as §1, §2, §3

IC50 [µM]	Compound
6.67 ± 2.38	COc1ccc(/C(C#N)=C/c2ccc(NC(=O)CN3CCN(C)CC3)cc2C)cc1OC [12d1]
24 ± 2.46	CCN1CCN(CC(=O)Nc2ccc(/C=C(\C#N)c3ccc(OC)c(OC)c3)c(C)c2)CC1 [12d2]
8.32 ± 0.3	COc1cc(/C(C#N)=C/c2ccc(NC(=O)CN3CCN(C(C)C)CC3)cc2)cc(OC)c1OC.Cl [compound 15]
12.6 ± 1.74	COc1cc(/C(C#N)=C/c2ccc(NC(=O)CN3CCN(CCOCCO)CC3)cc2)cc(OC)c1OC [compound 16]
10.3 ± 1.07	COc1cc(/C(C#N)=C/c2ccc(NC(=O)CN3CCN[C@@H](C)C3)cc2)cc(OC)c1OC [compound 17]

Test system: BEL-7402 liver cancer cell
Test: MTT cell growth inhibition assay, BEL-7402 liver cancer cells
Type: cell-based
Settings: Homo sapiens, mean ± SD of three experiments, read-out: IC50 BEL-7402 Hepatoma Cells
Excerpt: as §1, §2, §3

IC50 [µM]	Compound
9.53 ± 0.93	COc1ccc(/C(C#N)=C/c2ccc(NC(=O)CN3CCN(C)CC3)cc2C)cc1OC [12d1]
21.3 ± 0.71	CCN1CCN(CC(=O)Nc2ccc(/C=C(\C#N)c3ccc(OC)c(OC)c3)c(C)c2)CC1 [12d2]
14.7 ± 1.09	COc1cc(/C(C#N)=C/c2ccc(NC(=O)CN3CCN(C(C)C)CC3)cc2)cc(OC)c1OC.Cl [compound 15]
14.4 ± 2.38	COc1cc(/C(C#N)=C/c2ccc(NC(=O)CN3CCN(CCOCCO)CC3)cc2)cc(OC)c1OC [compound 16]
15 ± 2.32	COc1cc(/C(C#N)=C/c2ccc(NC(=O)CN3CCN[C@@H](C)C3)cc2)cc(OC)c1OC [compound 17]

Test system: MCF-10A normal breast cell
Test: MTT cell growth inhibition assay, MCF-10A normal breast cells
Type: cell-based
Settings: Homo sapiens, mean ± SD of three experiments, read-out: IC50 MCF-10A Normal Breast Epithelial Cells
Excerpt: as §1, §2, §3

Compound	IC50 [µM]
COc1ccc(/C(C#N)=C/c2ccc(NC(=O)CN3CCN(C)CC3)cc2C)cc1OC [12d1]	54.5 ± 13.2
CCN1CCN(CC(=O)Nc2ccc(/C=C(\C#N)c3ccc(OC)c(OC)c3)c(C)c2)CC1 [12d2]	38.4 ± 4.48
COc1cc(/C(C#N)=C/c2ccc(NC(=O)CN3CCN(C(C)C)CC3)cc2)cc(OC)c1OC.Cl [compound 15]	21 ± 4.73
COc1cc(/C(C#N)=C/c2ccc(NC(=O)CN3CCN(CCOCCO)CC3)cc2)cc(OC)c1OC [compound 16]	18.9 ± 2.95
COc1cc(/C(C#N)=C/c2ccc(NC(=O)CN3CCN[C@@H](C)C3)cc2)cc(OC)c1OC [compound 17]	17.4 ± 3.56

Test system: L-02 normal liver cell
Test: MTT cell growth inhibition assay, L-02 normal liver cells
Type: cell-based
Settings: Homo sapiens, mean ± SD of three experiments
Excerpt: as §1, §2, §3

Compound	IC50 [µM]
COc1ccc(/C(C#N)=C/c2ccc(NC(=O)CN3CCN(C)CC3)cc2C)cc1OC [12d1]	42.4 ± 1.91
CCN1CCN(CC(=O)Nc2ccc(/C=C(\C#N)c3ccc(OC)c(OC)c3)c(C)c2)CC1 [12d2]	25.8 ± 2.56
COc1cc(/C(C#N)=C/c2ccc(NC(=O)CN3CCN(C(C)C)CC3)cc2)cc(OC)c1OC.Cl [compound 15]	22.6 ± 1.36
COc1cc(/C(C#N)=C/c2ccc(NC(=O)CN3CCN(CCOCCO)CC3)cc2)cc(OC)c1OC [compound 16]	23.4 ± 3.61
COc1cc(/C(C#N)=C/c2ccc(NC(=O)CN3CCN[C@@H](C)C3)cc2)cc(OC)c1OC [compound 17]	28.2 ± 5.16

Test system: not listed separately
Test: Aqueous solubility in 0.01 M PBS, high throughput UV method
Type: physicochemical
Settings: 0.01 M PBS; ratio to 9a
Excerpt: as §1
The aqueous solubility was determined as a previously reported procedure. Put simply, a certain amount of powdered compound was placed in a 2 mL centrifuge tube and mixed with an appropriate volume of aqueous phosphate buffer (10 mM, pH 7.4) to make the whole system supersaturated. The mixtures were sonicated (KQ5200DE numerical control ultrasonic cleaner, Kunshan Ultrasonic Instrument Co., Ltd., SuZhou, China) for 20 min. After sonication, the mixture was allowed to equilibrate at RT (22 ± 2 °C) for 1.5 h with vortex shaking (1200 rpm). Then centrifuged at 3000 rpm for 15 min (1-14k, sigma, Darmstadt, Germany), the supernatant was filtered with a 0.22 µM filter membrane. And then, take 150 µL of filtrate and add it to 96-well UV plate with triplicate. Draw 150 μL of blank solution was added into plate as blank control. The 96-well UV plate prepared above was read on a Synergy HTX Multifunctional Microplate Reader (BioTek, Vermont, USA) at 294 nm. The absorbance of the sample was corrected according to the UV response of the sample and blank solution, and the corrected UV response values were used for solubility calculations by bringing into the standard curve of the compound. […]
1.5. Solubility Assessment
The aqueous solubility was determined as previously reported using the high throughput solubility screens procedure published by Bruno Bard et al [9. 10]. Put simply, a certain amount of powdered compound was placed in a 2 ml centrifuge tube and mixed with an appropriate volume of aqueous phosphate buffer (0.01 M, pH 7.4) to make the whole system supersaturated. The mixtures were sonicated (KQ5200DE numerical control ultrasonic cleaner, Kunshan Ultrasonic Instrument Co., Ltd., China) for 20 min. After sonication, the mixture was allowed to equilibrate at room temperature (22 ± 2°C) for 1.5 h with vortex shaking (1200 rpm). Then the centrifuge tube was put into the centrifuge (1-14k, sigma, Germany), centrifuged with 3000 rpm for 15 minutes, 0.22 µM filter membrane filtration supernatant, then take 150 µl filtrate and add it to 96-well UV plate, with three well for each compound. Draw 150 μL blank solution were added into 96 well-plate as blank control. The 96-well UV […]
plate prepared above was read on a SynergyHTX Multifunctional microplate reader (BioTek, USA) at 338 nm (compounds 12a-12d and 15-20) or 370 nm (compounds 9a-d). The absorbance of the sample was corrected according to the UV response of the sample and blank solution, and the corrected UV responses value were used for solubility calculations by bring into the standard curve of the compound. […]

Increase of aqueous solubility compared with 9a	Compound
more than 231 times	COc1cc(/C(C#N)=C/c2ccc(NC(=O)CN3CCN(CCOCCO)CC3)cc2)cc(OC)c1OC [compound 16]

Same assay, conditions: aqueous phosphate buffer, aqueous buffer; sodium phosphate buffer 0.01 M, pH 7.4, 22 ± 2 °C; mean ± SD

solubility thermodynamic at 1.5 h [µg/mL]	Compound
124 ± 8.7	COc1ccc(/C(C#N)=C/c2ccc(NC(=O)CN3CCN(C)CC3)cc2C)cc1OC [12d1]
85.1 ± 13.2	CCN1CCN(CC(=O)Nc2ccc(/C=C(\C#N)c3ccc(OC)c(OC)c3)c(C)c2)CC1 [12d2]
8620 ± 525	COc1cc(/C(C#N)=C/c2ccc(NC(=O)CN3CCN(C(C)C)CC3)cc2)cc(OC)c1OC.Cl [compound 15]
2500 ± 266	COc1cc(/C(C#N)=C/c2ccc(NC(=O)CN3CCN(CCOCCO)CC3)cc2)cc(OC)c1OC [compound 16]
504 ± 117	COc1cc(/C(C#N)=C/c2ccc(NC(=O)CN3CCN[C@@H](C)C3)cc2)cc(OC)c1OC [compound 17]
